Source: patent US7812008B2, “9-substituted tetracyclines” (Wyeth LLC, priority 2005, dated 2010)
In brackets after ≈: the same amount, converted by molar mass. Where two headings read alike, the source gives them in different places.

Legend:
E. coli GC2270 (tet(M)) = assay: MIC broth microdilution, E. coli GC2270 (tet(M)); type: cell-based; conditions: MHBII, 18-22 hours at 35° C.
Method: (§1) Methods for in Vitro Antibacterial Evaluation
(§2) The minimum inhibitory concentration (MIC)
(§3) Antimicrobial susceptibility testing. The in vitro activities of representative examples of antibiotics of the invention are determined by the broth microdilution method as recommended by the National Committee for Clinical Laboratory Standards (NCCLS) (1). Mueller-Hinton II broth (MHBII)(BBL Cockeysville, Md.) is the medium employed in the testing procedures. Microtiter plates containing serial dilutions of each antimicrobial agent are inoculated with each organism to yield the appropriate density (10^5 CFU/ml) in a 100 μl final volume. The plates are incubated for 18-22 hours at 35° C. in ambient air. […] NCCLS. 2000. Methods for Dilution Antimicrobial Susceptibility Tests for Bacteria That Grow Aerobically; Approved Standards: M7-A5, vol. 20. National Committe for Clinical Laboratory Standards, Wayne, Pa.

[1] = test system: E. coli GC4559 (parent GC4560); assay: MIC broth microdilution, E. coli GC4559 (parent GC4560); type: cell-based; conditions: MHBII, 18-22 hours at 35° C.
Method: as §1, §2, §3

[2] = test system: E. coli GC4560 (IMP mutant); assay: MIC broth microdilution, E. coli GC4560 (IMP mutant); type: cell-based; conditions: MHBII, 18-22 hours at 35° C.
Method: as §1, §2, §3

[3] = test system: E. coli GC2203 (ATCC Control); assay: MIC broth microdilution, E. coli GC2203 (ATCC Control); type: cell-based; conditions: MHBII, 18-22 hours at 35° C.
Method: as §1, §2, §3

E. coli GC1073 (tet(B)) = assay: MIC broth microdilution, E. coli GC1073 (tet(B)); type: cell-based; conditions: MHBII, 18-22 hours at 35° C.
Method: as §1, §2, §3

[4] = test system: S. aureus GC1131 (Clinical); assay: MIC broth microdilution, S. aureus GC1131 (Clinical); type: cell-based; conditions: MHBII, 18-22 hours at 35° C.
Method: as §1, §2, §3

[5] = test system: S. aureus GC6466 (tet(M)); assay: MIC broth microdilution, S. aureus GC6466 (tet(M)); type: cell-based; conditions: MHBII, 18-22 hours at 35° C.
Method: as §1, §2, §3

[6] = test system: S. aureus GC6467 (tet(M) + (K)); assay: MIC broth microdilution, S. aureus GC6467 (tet(M) + (K)); type: cell-based; conditions: MHBII, 18-22 hours at 35° C.
Method: as §1, §2, §3

[7] = test system: S. aureus GC1079 (tet(K)); assay: MIC broth microdilution, S. aureus GC1079 (tet(K)); type: cell-based; conditions: MHBII, 18-22 hours at 35° C.
Method: as §1, §2, §3

[8] = test system: S. aureus GC4536 (Smith MP -In Vivo); assay: MIC broth microdilution, S. aureus GC4536 (Smith MP -In Vivo); type: cell-based; conditions: MHBII, 18-22 hours at 35° C.
Method: as §1, §2, §3

[9] = test system: S. aureus GC2216 (ATCC Control); assay: MIC broth microdilution, S. aureus GC2216 (ATCC Control); type: cell-based; conditions: MHBII, 18-22 hours at 35° C.
Method: as §1, §2, §3

[10] = test system: E. faecalis GC4555 (ATCC Control); assay: MIC broth microdilution, E. faecalis GC4555 (ATCC Control); type: cell-based; conditions: MHBII, 18-22 hours at 35° C.
Method: as §1, §2, §3

[11] = test system: E. faecalis GC2267 (tet(L) + (M) + (S)); assay: MIC broth microdilution, E. faecalis GC2267 (tet(L) + (M) + (S)); type: cell-based; conditions: MHBII, 18-22 hours at 35° C.
Method: as §1, §2, §3

[12] = test system: E. faecalis GC2242 (Van-resistant); assay: MIC broth microdilution, E. faecalis GC2242 (Van-resistant); type: cell-based; conditions: MHBII, 18-22 hours at 35° C.
Method: as §1, §2, §3

[13] = test system: S. pneumoniae* GC4465 (Clinical); assay: MIC broth microdilution, S. pneumoniae GC4465 (Clinical); type: cell-based; conditions: 18-22 hours at 35° C.
Method: as §1, §2, §3

[14] = test system: S. pneumoniae* GC1894 (Clinical); assay: MIC broth microdilution, S. pneumoniae GC1894 (Clinical); type: cell-based; conditions: 18-22 hours at 35° C.
Method: as §1, §2, §3

[15] = test system: S. pyogenes* GC4563 (Clinical); assay: MIC broth microdilution, S. pyogenes GC4563 (Clinical); type: cell-based; conditions: 18-22 hours at 35° C.
Method: as §1, §2, §3

[16] = test system: M. catarrhalis* GC6907 (Clinical); assay: MIC broth microdilution, M. catarrhalis GC6907 (Clinical); type: cell-based; conditions: 18-22 hours at 35° C.
Method: as §1, §2, §3

[17] = test system: H. influenzae<> GC6896 (ATCC Control); assay: MIC broth microdilution, H. influenzae GC6896 (ATCC Control); type: cell-based; conditions: 18-22 hours at 35° C.
Method: as §1, §2, §3

[18] = test system: C. albicans GC3066 ATCC (Control); assay: MIC broth microdilution, C. albicans GC3066 ATCC (Control); type: cell-based; conditions: 18-22 hours at 35° C.
Method: as §1, §2, §3

[19] = test system: Staphylococcal aureus Smith M P; assay: In vivo antibacterial evaluation, acute lethal infection in mice; conditions: single oral dose 30 minutes after intraperitoneal challenge, female CD-1 mice, 7 day survival ratios, 3 tests pooled; for ED50: Mus musculus, read-out: SOD* ED50
Method: In Vivo Antibacterial Evaluation: The therapeutic effects of representative examples of the invention are determined against acute lethal infection with Staphylococcal aureus Smith M P, Female mice, strain CD-1 (Charles River Laboratoties), ca. 20 grams, are challenged by an intraperitoneal injection of sufficient bacteria (suspended in broth or hog mucin) to kill non-treated controls within 24-28 hours. Antibacterial agents, contained in 0.5 ml of 0.2% aqueous agar, are administered subcutaneously or orally 30 minutes after injection. When an oral dosing schedule is used, animal are deprived of food for 5 hours before and 2 hours after injection. Five mice are treated at each dose level. The 7 day survival ratios from 3 separate tests are pooled for calculation of median effective dose (ED50).

[20] = test system: Staphylococcal aureus Smith M P; assay: MIC reported in Table 2 beside the in vivo ED50; type: cell-based; conditions: Staphylococcus aureus, infecting strain S. aureus Smith MP
Method: Antimicrobial susceptibility testing. The in vitro activities of representative examples of antibiotics of the invention are determined by the broth microdilution method as recommended by the National Committee for Clinical Laboratory Standards (NCCLS) (1). Mueller-Hinton II broth (MHBII)(BBL Cockeysville, Md.) is the medium employed in the testing procedures. Microtiter plates containing serial dilutions of each antimicrobial agent are inoculated with each organism to yield the appropriate density (10^5 CFU/ml) in a 100 μl final volume. The plates are incubated for 18-22 hours at 35° C. in ambient air. […] NCCLS. 2000. Methods for Dilution Antimicrobial Susceptibility Tests for Bacteria That Grow Aerobically; Approved Standards: M7-A5, vol. 20. National Committe for Clinical Laboratory Standards, Wayne, Pa. In Vivo Antibacterial Evaluation: The therapeutic effects of representative examples of the invention are determined against acute lethal infection with Staphylococcal aureus Smith M P, Female mice, strain CD-1 (Charles River Laboratoties), ca. 20 grams, are challenged by an intraperitoneal injection of sufficient bacteria (suspended in broth or hog mucin) to kill non-treated controls within 24-28 hours. Antibacterial agents, contained in 0.5 ml of 0.2% aqueous agar, are administered subcutaneously or orally 30 minutes after injection. When an oral dosing schedule is used, animal are deprived of food for 5 hours before and 2 hours after injection. Five mice are treated at each dose level. The 7 day survival ratios from 3 separate tests are pooled for calculation of median effective dose (ED50).

[21] = test system: Staphylococcal aureus Smith M P; assay: In vivo antibacterial evaluation, acute lethal infection in mice; conditions: single intraveneous dose, female CD-1 mice, 7 day survival ratios, 3 tests pooled; for ED50: Mus musculus, iv, 168 h, read-out: SIV* ED50

| SMILES | minimum inhibitory concentration (MIC) (E. coli GC2270 (tet(M))) | minimum inhibitory concentration (MIC) [1] | minimum inhibitory concentration (MIC) [2] | minimum inhibitory concentration (MIC) [3] | minimum inhibitory concentration (MIC) (E. coli GC1073 (tet(B))) | minimum inhibitory concentration (MIC) [4] | minimum inhibitory concentration (MIC) [5] | minimum inhibitory concentration (MIC) [6] | minimum inhibitory concentration (MIC) [7] | minimum inhibitory concentration (MIC) [8] | minimum inhibitory concentration (MIC) [9] | minimum inhibitory concentration (MIC) [10] | minimum inhibitory concentration (MIC) [11] | minimum inhibitory concentration (MIC) [12] | minimum inhibitory concentration (MIC) [13] | minimum inhibitory concentration (MIC) [14] | minimum inhibitory concentration (MIC) [15] | minimum inhibitory concentration (MIC) [16] | minimum inhibitory concentration (MIC) [17] | minimum inhibitory concentration (MIC) [18] | other results |
| --- | --- | --- | --- | --- | --- | --- | --- | --- | --- | --- | --- | --- | --- | --- | --- | --- | --- | --- | --- | --- | --- |
| CN(C)[C@@H]1C(O)=C(C(N)=O)C(=O)[C@@]2(O)C(O)=C3C(=O)c4c(O)c(NC(=O)CN5CCCCO5)cc(I)c4C[C@H]3C[C@@H]12 [Example 9, (4S,4aS,5aR,12aS)-4-(dimethylamino)-3,10,12,12a-tetrahydroxy-7-iodo-9[(1,2-oxazinan-2-ylacetyl)amino]-1,11-dioxo-1,4,4a,5,5a,6,11,12a-octahydrotetracene-2-carboxamide] | >64 | >64 | 2 | >64 | >64 | 2 | 1 | 4 | 2 | 4 | 1 | 4 | 2 | 8 | 1 | 0.50 | 1 | 2 | >64 | >64 |  |
| CC(C)N(O)CC(=O)Nc1cc(N(C)C)c2c(c1O)C(=O)C1=C(O)[C@]3(O)C(=O)C(C(N)=O)=C(O)[C@@H](N(C)C)[C@@H]3C[C@@H]1C2 [Example 2, (4S,4aS,5aR,12aS)-4,7-bis(dimethylamino)-3,10,12,12a-tetrahydroxy-9-[(N-hydroxy-N-isopropylglycyl)amino]-1,11-dioxo-1,4,4a,5,5a,6,11,12a-octahydrotetracene-2-carboxamide] | 4 | 8 | 0.25 | 2 | 16 | 4 | 4 | 16 | 8 | 4 | 2 | 1 | 4 | 2 | 0.25 | 0.25 | 0.25 | 1 | 2 | >64 | ED50 [19]: 18 mg/kg; MIC [20]: 1 µg/mL (≈ 1.7 µM); ED50 [21]: 0.25 to 0.5 mg/kg |
| CN(C)c1cc(NC(=O)CN(O)C2CCCCC2)c(O)c2c1C[C@H]1C[C@H]3[C@H](N(C)C)C(O)=C(C(N)=O)C(=O)[C@@]3(O)C(O)=C1C2=O [Example 1, (4S,4aS,5aR,12aS)-9-[(N-cyclohexyl-N-hydroxyglycyl)amino]-4,7-bis(dimethylamino)-3,10,12,12a-tetrahydroxy-1,11-dioxo-1,4,4a,5,5a,6,11,12a-octahydrotetracene-2-carboxamide] | 8 | 8 | 0.25 | 2 | 16 | 4 | 8 | >64 | 16 | 4 | 4 | 1 | 16 | 2 | 0.25 | 0.25 | 0.12 | 0.50 | 2 | >64 | ED50 [19]: 7.75 mg/kg; MIC [20]: 1 µg/mL (≈ 1.59 µM); ED50 [21]: 1.56 mg/kg |
| CN(C)c1cc(NC(=O)CNC(C)(C)C)c(O)c2c1C[C@H]1C[C@H]3[C@H](N(C)C)C(O)=C(C(N)=O)C(=O)[C@@]3(O)C(O)=C1C2=O [GAR-936, reference compound] |  |  |  |  |  |  |  |  |  |  |  |  |  |  |  |  |  |  |  |  | SOD* ED50 [19]: 36 mg/kg; SIV* ED50 [21]: 0.46 mg/kg |
| CN(C)[C@@H]1C(O)=C(C(N)=O)C(=O)[C@@]2(O)C(O)=C3C(=O)c4c(O)c(NC(=O)CN5CCCCO5)cc(-c5cccs5)c4C[C@H]3C[C@@H]12 [Example 10, (4S,4aS,5aR,12aS)-4-(dimethylamino)-3,10,12,12a-tetrahydroxy-9-[(1,2-oxazinan-2-ylacetyl)amino]-1,11-dioxo-7-thien-2-yl-1,4,4a,5,5a,6,11,12a-octahydrotetracene-2-carboxamide] | >64 | >64 | 4 | >64 | >64 | 4 | 2 | 8 | 4 | 4 | 4 | 8 | 4 | 4 | 2 | 2 | 2 | 2 | >64 | >64 |  |
| CN(C)c1ccc(O)c2c1C[C@H]1C[C@H]3[C@H](N(C)C)C(O)=C(C(N)=O)C(=O)[C@@]3(O)C(O)=C1C2=O [Minocycline, 7-(dimethylamino)-6-demethyl-6-deoxytetracycline, reference compound] | 64 | 2 |  |  | 16 |  | 8 |  |  |  |  | 4 | 16 |  |  | 4 | <0.06 | <0.06 |  | >64 | ED50 [19]: 0.6 to 0.93 mg/kg; MIC [20]: 0.25 µg/mL (≈ 0.546 µM); ED50 [21]: 0.37 to 0.42 mg/kg |
